Measured values as given in patent publication US5668136A, “Trisubstituted benzene derivatives, composition and methods of treatment” (priority 1990, dated 1997).

Experiments:
ACAT = target: T1, ACAT (Oryctolagus cuniculus, UniProt G1SFD9); test: ACAT-inhibitory activity (in-vitro test, esterification of cholesterol with oleoyl-CoA, microsome of the small intestine of a rabbit); format: biochemical
T1 construct: by using the microsome of the small intestine of a rabbit as an enzyme source; from tissue; host or cells: rabbit small intestine, microsomes
T1 sequence (G1SFD9 1-524): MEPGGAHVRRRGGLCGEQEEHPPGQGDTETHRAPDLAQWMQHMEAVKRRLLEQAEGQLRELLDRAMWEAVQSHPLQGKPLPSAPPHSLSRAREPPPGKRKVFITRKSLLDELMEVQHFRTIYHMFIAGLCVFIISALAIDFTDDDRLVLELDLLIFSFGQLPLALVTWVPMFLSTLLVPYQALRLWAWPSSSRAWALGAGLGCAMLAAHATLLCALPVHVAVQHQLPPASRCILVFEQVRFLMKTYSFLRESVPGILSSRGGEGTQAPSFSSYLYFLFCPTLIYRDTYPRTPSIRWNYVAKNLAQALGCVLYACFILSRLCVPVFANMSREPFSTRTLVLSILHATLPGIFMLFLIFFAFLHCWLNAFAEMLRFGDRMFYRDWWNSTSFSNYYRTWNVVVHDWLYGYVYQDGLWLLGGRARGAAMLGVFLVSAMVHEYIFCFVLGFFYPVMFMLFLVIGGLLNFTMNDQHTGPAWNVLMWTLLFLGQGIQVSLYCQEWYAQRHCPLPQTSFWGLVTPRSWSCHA
Method: Representative compounds according to the present invention were examined for ACAT-inhibitory activity according to the in-vitro test proposed in Journal of Lipid Research, vol.
The inhibitory activity of a test compound against esterification or acylation of cholesterol with oleoyl CoA or acyl-CoA was evaluated by using the microsome of the small intestine of a rabbit as an enzyme source and determining the amount of a radioisotope-labeled cholesterol oleate made from a radioisotope-labeled oleoyl-CoA and (free) cholesterol.

[1] = In-vivo test: serum cholesterol level in hypercholesterolemic rats; design: species or system male Sprague-Dawley rat; conditions: oral, once a day, 10 mg per kg; food containing 1% of cholesterol for 2 days
Method: A male Sprague-Dawley rat was made to get hypercholesterolemia by feeding with food containing 1% of cholesterol for 2 days. A compound of the present invention (compound of Example 1, 54, 17 or 64) was orally administered to the rat once a day in a dose of 10 mg per kg of the weight.

[2] = One week toxic study in rats; format: in vivo, Sprague-Dawley rats; conditions: oral, 100 mg/kg daily for one week; for toxicity (overall finding of one week study): same condition
Method: The compound was orally given to animals at daily does of 100 mg/kg for one week.

Row | Compound | IC50 (ACAT) [nM] | lowering of serum cholesterol level [1] | toxicity (overall finding of one week study) [2] | toxicological symptom during the administration [2]
1 | CCCCNC(=O)Nc1c(C)cccc1OCCCn1cnc(-c2ccccc2)c1 [Example 54, N-[6-Methyl-2-{3-(4-phenyl-1H-imidazol-1-yl)propoxy}]-phenyl-N'-butylurea] | 48 | effectively lowered | – | –
2 | CCCCCNC(=O)Nc1c(OCCCn2cnc(-c3ccccc3)c2)cccc1N(C)C [Example 5, N-[6-N,N-Dimethylamino-2-{3-(4-phenyl-1H-imidazol-1-yl)propoxy}]phenyl-N'-pentylurea] | – | – | no toxic substances | –
3 | CCCCCNC(=O)Nc1c(OCCCN2CCN(c3ccccc3)CC2)cccc1N(C)C [Example 64, N-[6-N,N-Dimethylamino-2-{3-(4-phenylpiperazin-1-yl)propoxy}]phenyl-N'-pentylurea] | 17 | effectively lowered | – | –
4 | CCCCNC(=O)Nc1c(OCCCn2cnc(-c3ccccc3)c2)cccc1N(C)C [Example 2, N-[6-N,N-Dimethylamino-2-{3-(4-phenyl-1H-imidazol-1-yl)propoxy}]phenyl-N'-butylurea] | – | – | no toxic substances | –
5 | CCCCCNC(=O)Nc1c(C)cccc1OCCCn1cnc(-c2ccccc2)c1C [Example 127, N-[6-Methyl-2-{3-(5-methyl-4-phenyl-1H-imidazol-1-yl)-propoxy}]phenyl-N'-pentylurea] | 100 | – | no toxic substances | –
6 | CCCCNC(=O)Nc1c(C)cccc1OCCCn1cnc(-c2ccccc2)c1CC [Example 81, N-[6-Methyl-2-{3-(5-ethyl-4-phenyl-1H-imidazol-1-yl)-propoxy}]phenyl-N'-butylurea] | – | – | no toxic substance | No toxicological sympton was observed
7 | CCCCCNC(=O)Nc1c(C)cccc1OCCCn1cnc(-c2ccccc2)c1Cl [Example 93, N-[6-Methyl-2-{3-(5-chloro-4-phenyl-1H-imidazol-1-yl)-propoxy}]phenyl-N'-pentylurea] | 49 | – | – | –
8 | CCCCNC(=O)Nc1c(C)cccc1OCCCn1cnc(-c2ccccc2)c1C(C)C [Example 80, N-[6-Methyl-2-[3-{5-(1-methylethyl)-4-phenyl-1H-imidazol-1-yl}propoxy]]phenyl-N'-butylurea] | 88 | – | no toxic substances | –
9 | CCCCCCNC(=O)Nc1c(OCCCn2cnc(-c3ccccc3)c2)cccc1N(C)C [Example 17, N-[6-N,N-Dimethylamino-2-{3-(4-phenyl-1H-imidazol-1-yl)propoxy}]phenyl-N'-hexylurea] | 31 | effectively lowered | no toxic substances | –
10 | CCCCCNC(=O)Nc1c(OCCCn2cnc(-c3ccccc3)c2C)cccc1N(C)C [Example 1, N-[6-N,N-Dimethylamino-2-{3-(5-methyl-4-phenyl-1H-imidazol-1-yl)propoxy}]phenyl-N'-pentylurea] | 43 | effectively lowered | no toxic substances | –
